Assays:
[1] = tested on: female rabbit isolated heart treated with E-4031; assay: Torsades de pointes in rabbit isolated heart treated with E-4031; conditions: E-4031 60 nM; dronedarone 10 μM
Procedure: Each rabbit was sedated using intramuscular injections of 6 mg/kg xylazine and 40 mg/kg ketamine and then anesthetized using a “cocktail” of ketamine (15 mg/kg)+xylazine (4 mg/kg) in 1.5 ml saline. The ketamine/xylazine cocktail was administered as an i.v. bolus via the marginal ear vein. After anesthesia was confirmed, the thorax was opened and the heart was quickly excised. The heart was placed in a modified Krebs-Henseleit (K-H) physiological saline solution at room temperature. […] CPP was measured (with a Biopac MP 150 pressure transducer, Goleta, Calif.) from a side port of the aortic catheter. To facilitate exit of fluid from the chamber of the left ventricle (LV), the leaflets of the mitral valve were trimmed with fine spring-handled scissors. The right atrial wall was partially removed.
Complete AV block was induced by thermo-ablation of the AV nodal area. […] A bipolar Teflon-coated electrode was placed on the right ventricular septum to pace the heart. Electrical stimuli 3 ms in width and 3-fold threshold amplitude were delivered to the pacing electrode at a frequency of 1 Hz throughout the experiments using a Grass S48 stimulator (W. Warwick, R.I.).
After initiation of ventricular pacing, a 30-40 min equilibration delay was allowed for heart rate (and CPP) to achieve a steady state, an essential experimental condition for recording a good quality monophasic action potential (MAP) recording.
Monophasic action potential (MAP) and ECG electrodes from Harvard Apparatus Inc. (Holliston, Mass.) were used to record heart rate (in beats per minute, or bpm), left ventricular MAPs and a bipolar ECG MAP electrodes were pressure contact Ag—AgCl cells attached to a circular holder with springs to keep the electrodes in contact with the LV epicardial surface. Two MAP electrodes were placed on the epicardial ventricular free wall below the level of the atrial-ventricular valves, one at the base to record a basal MAP and one at the apex to record an apical MAP. […] Signals were saved on a computer hard disk for subsequent analysis. Bipolar electrocardiograms (ECG) were generated using an isolated-heart ECG apparatus (Harvard Apparatus, Holliston, Mass.) attached to Biopac amplifier system.

[2] = tested on: female rabbit isolated heart; assay: Monophasic action potential duration (MAPD90) in female rabbit isolated heart; conditions: ranolazine 0.1-100 μM
Procedure: Each rabbit was sedated using intramuscular injections of 6 mg/kg xylazine and 40 mg/kg ketamine and then anesthetized using a “cocktail” of ketamine (15 mg/kg)+xylazine (4 mg/kg) in 1.5 ml saline. The ketamine/xylazine cocktail was administered as an i.v. bolus via the marginal ear vein. After anesthesia was confirmed, the thorax was opened and the heart was quickly excised. The heart was placed in a modified Krebs-Henseleit (K-H) physiological saline solution at room temperature. The K-H solution contained (in mmol/L): NaCl 118, KCl 2.8, KH2PO4 1.2, CaCl2 2.5, MgSO4 0.5, pyruvate 2.0, glucose 5.5, Na2EDTA 0.57 and NaHCO3 25. […] CPP was measured (with a Biopac MP 150 pressure transducer, Goleta, Calif.) from a side port of the aortic catheter. […]
Monophasic action potential (MAP) and ECG electrodes from Harvard Apparatus Inc. (Holliston, Mass.) were used to record heart rate (in beats per minute, or bpm), left ventricular MAPs and a bipolar ECG MAP electrodes were pressure contact Ag—AgCl cells attached to a circular holder with springs to keep the electrodes in contact with the LV epicardial surface. […] To ensure that each response to drug had achieved a steady state before a drug concentration was changed, the MAP duration (from onset of depolarization to 100% repolarization) was measured using an on-screen caliper throughout each drug infusion period. […]

SMILES | Occurrences of torsades de pointes (TdP) (hearts) [1] | Increase in MAPD90 [2] [%] | MAPD90 ([2]; from 177±10) [ms]
CCCCc1oc2ccc(NS(C)(=O)=O)cc2c1C(=O)c1ccc(OCCCN(CCCC)CCCC)cc1 [Dronedarone, N-(2-Butyl-3-(p-(3-(dibutylamino)propoxy)benzoyl)-5-benzofuranyl)methanesulfonamide] | 1/6 |  | 
COc1ccccc1OCC(O)CN1CCN(CC(=O)Nc2c(C)cccc2C)CC1 (racemic) [Ranolazine, (±)-N-(2,6-dimethylphenyl)-4-[2-hydroxy-3-(2-methoxyphenoxy)-propyl]-1-piperazineacetamide] |  | 22±6 | 215 ± 6

From patent publication US9056108B2, “Method of treating atrial fibrillation” (Gilead Sciences, Inc., priority 2009, dated 2015)
